The text below walks through data of patent US12698293B2, “Crystal form of macrocyclic compound, and preparation method therefor and use thereof” (HITGEN INC., priority 2021, dated 2026).

The nature of series [1]: Hygroscopicity test by dynamic vapor sorption (DVS). As to conditions: for hygroscopicity characteristic: DVS, 0-80% relative humidity, China Pharmacopoeia 2020 classes; for weight change with increasing humidity (DVS): between 0-80% relative humidity. Type of series: physicochemical. How it is done:
The crystal form and amorphous form of the macrocyclic compound provided by the present invention were evaluated for hygroscopicity, and the test was performed using a dynamic vapor sorption to obtain data. The description of the hygroscopicity characteristic and the definition of the weight gain due to hygroscopicity (as shown in Table 2) are referred to China Pharmacopoeia (2020 edition) Part Four General Principles 9103.
The adsorption-desorption isotherm of the crystal form prepared in example 1 is shown in FIG. 5, wherein the abscissa is relative humidity and the ordinate is weight (%). […] The adsorption-desorption isotherm of the crystal form prepared in comparative example 1 is shown in FIG. 6, wherein the abscissa is relative humidity and the ordinate is weight (%).

Series [2] is described as follows: Stability test on influence factors (high temperature, high humidity, light), purity by HPLC. As to conditions: for change of purity / impurity content during the experimental period (in words): high temperature, high humidity and light, 30 days. Format: physicochemical. How it is done: The crystal form and the amorphous form of the macrocyclic compound provided by the present invention were subjected to the stability test on influence factors according to China Pharmacopoeia (2020 edition) Part Four General Principles 9103. Specifically, the crystal form of a macrocyclic compound prepared in example 1 and the amorphous form of the macrocyclic compound prepared in comparative example 1 were placed in an open space under the respective conditions of high temperature (60±2° C.), high humidity (90%±5% RH, 25±2° C.) and light (4500±500 Lx) for 30 days to test stability. The observation period was 30 days. The tested samples were taken on days 5, 10 and 30, and analyzed for purity by high performance liquid chromatography.

The nature of series [3]: Accelerated stability test, crystal form checked by XRPD. Format: physicochemical. As to conditions: 40 ± 2° C., relative humidity 75 ± 5%, seal. How it is done: The crystal form of the macrocyclic compound provided by the present invention was subjected to accelerated stability test to examine stability according to China Pharmacopoeia (2020 edition) Part Four General Principles 9103. Specifically, the crystal form was placed in a sealed space at temperature of 40±2° C. and a relative humidity of 75±5% for 6 months. The sample to be tested was taken at months 1, 2, 3 and 6, and detected using X-ray Powder Diffractometer.

Series [4] in a line: Pharmacokinetic test in beagle dogs, plasma concentration after oral gavage. Format: in vivo. As to conditions: dog, male beagle dogs, oral single gavage, 8 mg/kg. How it is done: After grouped (3 Beagle dogs per group), male beagle dogs were orally administered with the crystal form of the macrocyclic compound provided by the present invention via single gavage at a dose of 8 mg/kg. The plasma was collected at 0.25 h, 0.5 h, 1.0 h, 2.0 h, 4.0 h, 6.0 h, 8.0 h, and 24 h after the administration. A standard curve with appropriate range was established based on the concentration of the tested sample to calculate the concentration of the tested sample in plasma. The quantitative analysis was carried out and the pharmacokinetic parameters were calculated for the tested sample. The results are shown in Table 5, wherein Cmax represents the peak concentration, AUC0-last represents the area below the drug-time curve, Tmax represents peak time of the drug and T1/2 represents the half-life of the drug.

[5] abbreviates: listed as comparative example 1.

The structures appear in SMILES notation.

Consider `C[C@@H]1CCOc2ccc(F)cc2[C@H]2CCCN2c2ccc3ncc(C#N)c(c3n2)N1` [Comparative Example 1, (6R,16R)-9-fluoro-16-methyl-13-oxa-2,17,21,25-tetraazapentacyclo [16.6.2.0^2,6.0^7,12.0^22,26]hexacosane-1(25),7,9,11,18(26), 19,21,23-octane-19-carbonitrile], for which, in series [1] (setting [5]), the hygroscopicity characteristic result is “very hygroscopic (not less than 15%)”. Moreover, in series [1] (setting [5]), the “weight change with increasing humidity (DVS)” value is on record as “about 21.6%”. Besides, the “Sample purity (%)” value in series [2] (High humidity (90%±5% RH, 25±2° C.), open, day 5, listed as comparative example 1) stood at 97.9%; in series [2] (High humidity (90%±5% RH, 25±2° C.), open, day 10, listed as comparative example 1), 98.0%; in series [2] (High humidity (90%±5% RH, 25±2° C.), open, day 30, listed as comparative example 1) it was 97.7%; in series [2] (High temperature (60±2° C.), open, day 5, listed as comparative example 1), 97.6%; in series [2] (High temperature (60±2° C.), open, day 10, listed as comparative example 1), 97.1%; in series [2] (High temperature (60±2° C.), open, day 30, listed as comparative example 1), 96.9%. Moreover, the “Sample purity (%)” value in series [2] (Light (4500±500 Lx), open, day 5, listed as comparative example 1) is on record as 97.4%; in series [2] (Light (4500±500 Lx), open, day 10, listed as comparative example 1), 96.8%; in series [2] (Light (4500±500 Lx), open, day 30, listed as comparative example 1), 96.4%; in series [2] (day 0, listed as comparative example 1) it was 98.1%. The “change of purity / impurity content during the experimental period (in words)” value in series [2] (setting [5]) is reported as “decrease in purity”.
As a reminder, the AUC(0-t) is the area under the concentration-time curve up to a stated or last time point. Lower therefore signals less exposure. One may read the Tmax as the time from dosing to the highest level. As a reminder, the half-life is the time in which the quantity being followed falls by half. Low readings indicate fast loss, high ones slow loss. In the case of `C[C@@H]1CCOc2ccc(F)cc2[C@H]2CCCN2c2ccc3ncc(C#N)c(c3n2)N1` [Example 1, (6R,16R)-9-fluoro-16-methyl-13-oxa-2,17,21,25-tetraazapentacyclo [16.6.2.0^2,6.0^7,12.0^22,26]hexacosane-1(25),7,9,11,18(26), 19,21,23-octane-19-carbonitrile], in series [1] (listed as example 1), the hygroscopicity characteristic result is “not hygroscopic”. Further, the “weight change with increasing humidity (DVS)” value in series [1] (listed as example 1) is “approximately 0.1%”. Also, the “Sample purity (%)” value worked out at 98.8% in series [2] (High humidity (90%±5% RH, 25±2° C.), open, day 5, listed as example 1); 98.8% in series [2] (High humidity (90%±5% RH, 25±2° C.), open, day 10, listed as example 1); 98.8% in series [2] (High humidity (90%±5% RH, 25±2° C.), open, day 30, listed as example 1); 99.0% in series [2] (High temperature (60±2° C.), open, day 5, listed as example 1); 98.9% in series [2] (High temperature (60±2° C.), open, day 10, listed as example 1); 98.9% in series [2] (High temperature (60±2° C.), open, day 30, listed as example 1). The “Sample purity (%)” value in series [2] (Light (4500±500 Lx), open, day 5, listed as example 1) is reported as 98.9%; in series [2] (Light (4500±500 Lx), open, day 10, listed as example 1) it was 98.8%; in series [2] (Light (4500±500 Lx), open, day 30, listed as example 1) it was 98.6%; in series [2] (day 0, listed as example 1), 98.8%. For the same compound, the “change of purity / impurity content during the experimental period (in words)” value in series [2] (listed as example 1) was “increased slightly under the light condition only”. Besides, the “crystal form by XRPD” value in series [3] (month 1), in series [3] (month 2), in series [3] (month 3) and in series [3] (month 6) was “Same as initial crystal form” throughout. The same compound gave an area under the curve AUC(0-t) in series [4] of 5340 ± 1070 ng·h/mL. In series [4], the Tmax was 1.3 ± 0.58 h. Also, the half-life in series [4] was 19 ± 3.9 h. Further, in series [4] (read-out: C0/Cmax), the Cmax is 729 ± 208 ng/mL.
